These results are taken from the supplement of paper PMC10307832.

Common to all, as to assay: relative viability (nuclei count vs DMSO), 5 days (fraction); higher = more cells survive
Compound in the experiment “OSI-027 + Dasatinib”: COc1cccc2cc(-c3nc([C@H]4CC[C@H](C(=O)O)CC4)n4ncnc(N)c34)[nH]c12 [OSI-027] + Cc1nc(Nc2ncc(C(=O)Nc3c(C)cccc3Cl)s2)cc(N2CCN(CCO)CC2)n1 [Dasatinib] (partner 0.075 µM)
The method in brief:
(§1)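 Lung cancer cell lines in 1536-well plates got either a single drug or a fixed anchor-drug dose together with five library-drug doses (not always all listed) in √10 steps, by pin tool, on the day after seeding. Nuclei were counted after 5 days, and relative viability is the treated-to-vehicle ratio of nuclei counts. Values are medians of duplicate plates.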

Compound in the experiment “Alpelisib + Lapatinib”: Cc1nc(NC(=O)N2CCC[C@H]2C(N)=O)sc1-c1ccnc(C(C)(C)C(F)(F)F)c1 [Alpelisib] + CS(=O)(=O)CCNCc1ccc(-c2ccc3ncnc(Nc4ccc(OCc5cccc(F)c5)c(Cl)c4)c3c2)o1 [Lapatinib] (partner 2 µM)
The method in brief:
as §1

Compound in the experiment “Alpelisib + Crizotinib”: Cc1nc(NC(=O)N2CCC[C@H]2C(N)=O)sc1-c1ccnc(C(C)(C)C(F)(F)F)c1 [Alpelisib] + C[C@@H](Oc1cc(-c2cnn(C3CCNCC3)c2)cnc1N)c1c(Cl)ccc(F)c1Cl [Crizotinib] (partner 1 µM)
The method in brief: as §1

Compound in the experiment “Alpelisib + Olaparib”: Cc1nc(NC(=O)N2CCC[C@H]2C(N)=O)sc1-c1ccnc(C(C)(C)C(F)(F)F)c1 [Alpelisib] + O=C(c1cc(Cc2n[nH]c(=O)c3ccccc23)ccc1F)N1CCN(C(=O)C2CC2)CC1 [Olaparib] (partner 8 µM)
The method in brief:
as §1

On to BEN, for which the relative viability worked out at 0.304 with OSI-027 + Dasatinib (first compound 0.01 µM); 0.567 with OSI-027 + Dasatinib (first compound 0.03162 µM); 0.273 with OSI-027 + Dasatinib (first compound 0.1 µM); 0.218 with OSI-027 + Dasatinib (first compound 0.3162 µM); 0.169 in the experiment with OSI-027 + Dasatinib (first compound 1 µM); 0.715 with Alpelisib + Lapatinib (first compound 0.04 µM). The relative viability with Alpelisib + Lapatinib (first compound 0.1265 µM) stood at 0.618; in the experiment with Alpelisib + Lapatinib (first compound 0.4 µM), 0.88; with Alpelisib + Lapatinib (first compound 1.265 µM) it was 0.688; in the experiment with Alpelisib + Lapatinib (first compound 4 µM), 0.708; with Alpelisib + Crizotinib (first compound 0.04 µM), 0.956; with Alpelisib + Crizotinib (first compound 0.1265 µM), 0.95. Moreover, the relative viability stood at 1.04 in the experiment with Alpelisib + Crizotinib (first compound 0.4 µM); 0.884 with Alpelisib + Crizotinib (first compound 1.265 µM); 0.866 with Alpelisib + Crizotinib (first compound 4 µM); 1.18 in the experiment with Alpelisib + Olaparib (first compound 0.04 µM); 1.18 with Alpelisib + Olaparib (first compound 0.1265 µM); 1.22 with Alpelisib + Olaparib (first compound 0.4 µM). Moreover, the relative viability in the experiment with Alpelisib + Olaparib (first compound 1.265 µM) was 1.02; with Alpelisib + Olaparib (first compound 4 µM), 0.879.
For CAL-12T, the relative viability in the experiment with OSI-027 + Dasatinib (first compound 0.01 µM) amounted to 0.4; with OSI-027 + Dasatinib (first compound 0.03162 µM), 0.376; with OSI-027 + Dasatinib (first compound 0.1 µM), 0.367; with OSI-027 + Dasatinib (first compound 0.3162 µM) it was 0.36; with OSI-027 + Dasatinib (first compound 1 µM), 0.148; with Alpelisib + Lapatinib (first compound 0.04 µM), 0.678. Moreover, the relative viability in the experiment with Alpelisib + Lapatinib (first compound 0.4 µM) was found to be 0.658; with Alpelisib + Lapatinib (first compound 4 µM), 0.496; in the experiment with Alpelisib + Crizotinib (first compound 0.04 µM), 0.66; in the experiment with Alpelisib + Crizotinib (first compound 0.1265 µM), 0.53; with Alpelisib + Crizotinib (first compound 0.4 µM), 0.711; with Alpelisib + Crizotinib (first compound 1.265 µM) it was 0.556. Moreover, the relative viability with Alpelisib + Crizotinib (first compound 4 µM) was 0.596; in the experiment with Alpelisib + Olaparib (first compound 0.04 µM) it was 0.771; in the experiment with Alpelisib + Olaparib (first compound 0.1265 µM) it was 0.774; in the experiment with Alpelisib + Olaparib (first compound 0.4 µM), 0.767; with Alpelisib + Olaparib (first compound 1.265 µM), 0.726; with Alpelisib + Olaparib (first compound 4 µM), 0.745.
On to COR-L23, for which the relative viability came out at 0.513 with OSI-027 + Dasatinib (first compound 0.01 µM); 0.422 with OSI-027 + Dasatinib (first compound 0.03162 µM); 0.424 in the experiment with OSI-027 + Dasatinib (first compound 0.1 µM); 0.386 with OSI-027 + Dasatinib (first compound 0.3162 µM); 0.208 in the experiment with OSI-027 + Dasatinib (first compound 1 µM); 1.03 with Alpelisib + Lapatinib (first compound 0.04 µM). The relative viability with Alpelisib + Lapatinib (first compound 0.1265 µM) stood at 0.896; with Alpelisib + Lapatinib (first compound 0.4 µM) it was 1.14; with Alpelisib + Lapatinib (first compound 1.265 µM) it was 0.781; in the experiment with Alpelisib + Lapatinib (first compound 4 µM) it was 0.606; with Alpelisib + Crizotinib (first compound 0.04 µM) it was 0.622; with Alpelisib + Crizotinib (first compound 0.1265 µM) it was 0.613. Also, the relative viability in the experiment with Alpelisib + Crizotinib (first compound 0.4 µM) worked out at 0.698; with Alpelisib + Crizotinib (first compound 1.265 µM) it was 0.478; with Alpelisib + Crizotinib (first compound 4 µM), 0.459; with Alpelisib + Olaparib (first compound 0.04 µM) it was 0.327; with Alpelisib + Olaparib (first compound 0.1265 µM) it was 0.338; in the experiment with Alpelisib + Olaparib (first compound 0.4 µM), 0.573. Further, the relative viability is 0.294 with Alpelisib + Olaparib (first compound 1.265 µM) and 0.253 with Alpelisib + Olaparib (first compound 4 µM).
COR-L 105: the relative viability with OSI-027 + Dasatinib (first compound 0.01 µM) amounted to 0.322; with OSI-027 + Dasatinib (first compound 0.03162 µM) it was 0.328; with OSI-027 + Dasatinib (first compound 0.1 µM), 0.299; in the experiment with OSI-027 + Dasatinib (first compound 0.3162 µM), 0.236; with OSI-027 + Dasatinib (first compound 1 µM) it was 0.243; in the experiment with Alpelisib + Lapatinib (first compound 0.04 µM), 0.338. For the same cell line, the relative viability with Alpelisib + Lapatinib (first compound 0.1265 µM) is 0.391; in the experiment with Alpelisib + Lapatinib (first compound 0.4 µM), 0.364; with Alpelisib + Lapatinib (first compound 1.265 µM), 0.287; with Alpelisib + Lapatinib (first compound 4 µM), 0.337; with Alpelisib + Crizotinib (first compound 0.04 µM), 0.697; with Alpelisib + Crizotinib (first compound 0.1265 µM) it was 1. Also, the relative viability with Alpelisib + Crizotinib (first compound 0.4 µM) was determined as 0.879; in the experiment with Alpelisib + Crizotinib (first compound 1.265 µM) it was 0.691; with Alpelisib + Crizotinib (first compound 4 µM) it was 0.695; with Alpelisib + Olaparib (first compound 0.04 µM) it was 0.706; with Alpelisib + Olaparib (first compound 0.1265 µM), 0.646; with Alpelisib + Olaparib (first compound 0.4 µM), 0.755. Further, the relative viability with Alpelisib + Olaparib (first compound 1.265 µM) worked out at 0.686; in the experiment with Alpelisib + Olaparib (first compound 4 µM), 0.642.
